Columns and labels:
[1] = system: E. coli ATCC 25922; test: MIC, twofold serial microdilution; format: cell-based, Escherichia coli; details: E. coli ATCC 25922, 18 h, 35 °C
Method: (§1) The antimicrobial activity of the compounds was tested on Gram-positive bacteria (Staphylococcus aureus NCTC 4163, Staphylococcus aureus ATCC 25923, Staphylococcus aureus ATCC 6538, Staphylococcus aureus ATCC 29213, Staphylococcus epidermidis ATCC 12228, Staphylococcus epidermidis ATCC 35984), Gram-negative rods (Escherichia coli ATCC 10538, Escherichia coli ATCC 25922, Pseudomonas aeruginosa ATCC 15442, Pseudomonas aeruginosa ATCC 27863) and yeasts (Candida albicans ATCC 10231, Candida albicans ATCC 90028, Candida parapsilosis ATCC 22019). Hospital methicillin-resistant strains of Staphylococcus aureus and Staphylococcus epidermidis were obtained from the collection of the Department of Pharmaceutical Microbiology, Medical University of Warsaw, Poland.
(§2) Antifungal activities were assessed using Mueller–Hinton agar + 2% glucose and 0.5 µg/mL methylene blue dye medium. Sterile filter paper discs (9 mm diameter, Whatman Number 3 chromatography paper) were dripped with tested compound solutions (in dimethylsulfoxide, DMSO) to load 400 μg of a given compound per disc. Dry discs were placed on the surface of appropriate agar medium. The results (diameter of the growth inhibition zone) were read after 18 h of incubation at 35 °C. Minimal inhibitory concentration (MIC) was tested by the twofold serial microdilution method (in 96-well microtiter plates) using Mueller–Hinton broth medium (Beckton Dickinson) for bacteria or RPMI-1640 medium for Candida species, according to CLSI guidelines. The stock solution of tested agent was prepared in DMSO and diluted in sterile water. […] The final inoculum of all studied microorganisms was 10^5 CFU/ mL^−1 (colony forming units per ml). Minimal inhibitory concentrations (the lowest concentration of a tested agent that prevents visible growth of a microorganism) were read after 18 h (bacteria) or 24 h (yeasts) of incubation at 35 °C.

[2] = system: E. coli NCTC 10538; test: MIC, twofold serial microdilution; format: cell-based, Escherichia coli; details: E. coli NCTC 10538, 18 h, 35 °C
Method: as §1, §2

[3] = system: Bacillus subtilis M45 (rec−); test: Bacillus subtilis rec-assay, M45; format: cell-based; details: B. subtilis M45; 256 µg per disc (NOQ 2 µg per disc)
Method: DNA-damaging activity of compounds was tested by rec-assay using two genetically modified Bacillus subtilis strains: M45 (rec^−) and H17 (rec^+). Tested compounds were dissolved in DMSO, and 10 µL of each solution was dripped onto sterile cotton discs (Rotilabo) to load 256 µg of a given compound per 9 mm disc. Discs were placed on the surface nutrient agar plates (Difco), inoculated with 100 µL of bacterial overnight culture and incubated […] at 35 °C. After incubation, the growth inhibition zones were measured. […] Results of the genotoxicity test were estimated after 18 h of incubation at 35 °C by comparing the diameter of the inhibition zone on the B. subtilis M45 (rec^−) strain with that on the B. subtilis H17 (rec^+) strain.

[4] = system: hospital S. epidermidis (MRSE); test: MIC, hospital S. epidermidis; format: cell-based, Staphylococcus epidermidis; details: for times more effective than the reference chemotherapeutic (ciprofloxacin): S. epidermidis 424, 471, 511, 515 and 431–433 isolates
Method: as §1, §2

[5] = system: S. aureus ATCC 29213; test: MIC, twofold serial microdilution; format: cell-based, Staphylococcus aureus; details: S. aureus ATCC 29213, 18 h, 35 °C
Method: as §1, §2

[6] = system: S. aureus NCTC 4163; test: MIC, twofold serial microdilution; format: cell-based, Staphylococcus aureus; details: S. aureus NCTC 4163, 18 h, 35 °C
Method: as §1, §2

[7] = system: S. aureus ATCC 25923; test: MIC, twofold serial microdilution; format: cell-based, Staphylococcus aureus; details: S. aureus ATCC 25923, 18 h, 35 °C
Method: as §1, §2

[8] = system: S. aureus ATCC 6538; test: MIC, twofold serial microdilution; format: cell-based, Staphylococcus aureus; details: S. aureus ATCC 6538, 18 h, 35 °C
Method: as §1, §2

[9] = system: S. aureus 481; test: MIC, hospital MRSA strain; format: cell-based, Staphylococcus aureus; details: for times more active than ciprofloxacin: S. aureus 481; for MIC: hospital MRSA S. aureus 481
Method: as §1, §2

[10] = system: S. epidermidis 511; test: MIC, hospital MRSE strain; format: cell-based, Staphylococcus epidermidis; details: hospital MRSE S. epidermidis 511
Method: as §1, §2

[11] = system: S. epidermidis 437; test: MIC, hospital MRSE strain; format: cell-based, Staphylococcus epidermidis; details: hospital MRSE S. epidermidis 437
Method: as §1, §2

[12] = system: S. epidermidis 420; test: MIC, hospital MRSE strain; format: cell-based, Staphylococcus epidermidis; details: hospital MRSE S. epidermidis 420
Method: as §1, §2

[13] = system: S. epidermidis 432; test: MIC, hospital MRSE strain; format: cell-based, Staphylococcus epidermidis; details: hospital MRSE S. epidermidis 432
Method: as §1, §2

[14] = system: S. epidermidis 469; test: MIC, hospital MRSE strain; format: cell-based, Staphylococcus epidermidis; details: hospital MRSE S. epidermidis 469
Method: as §1, §2

[15] = system: S. epidermidis 515; test: MIC, hospital MRSE strain; format: cell-based, Staphylococcus epidermidis; details: hospital MRSE S. epidermidis 515
Method: as §1, §2

[16] = system: S. epidermidis 424; test: MIC, hospital MRSE strain; format: cell-based, Staphylococcus epidermidis; details: hospital MRSE S. epidermidis 424
Method: as §1, §2

[17] = system: S. epidermidis 438; test: MIC, hospital MRSE strain; format: cell-based, Staphylococcus epidermidis; details: hospital MRSE S. epidermidis 438
Method: as §1, §2

[18] = system: S. epidermidis 513; test: MIC, hospital MRSE strain; format: cell-based, Staphylococcus epidermidis; details: hospital MRSE S. epidermidis 513
Method: as §1, §2

[19] = system: S. epidermidis 423; test: MIC, hospital MRSE strain; format: cell-based, Staphylococcus epidermidis; details: hospital MRSE S. epidermidis 423
Method: as §1, §2

[20] = system: S. epidermidis 435; test: MIC, hospital MRSE strain; format: cell-based, Staphylococcus epidermidis; details: hospital MRSE S. epidermidis 435
Method: as §1, §2

[21] = system: S. epidermidis 510; test: MIC, hospital MRSE strain; format: cell-based, Staphylococcus epidermidis; details: hospital MRSE S. epidermidis 510
Method: as §1, §2

[22] = system: S. epidermidis 471; test: MIC, hospital MRSE strain; format: cell-based, Staphylococcus epidermidis; details: hospital MRSE S. epidermidis 471
Method: as §1, §2

[23] = system: S. epidermidis 431; test: MIC, hospital MRSE strain; format: cell-based, Staphylococcus epidermidis; details: hospital MRSE S. epidermidis 431
Method: as §1, §2

[24] = system: S. epidermidis 436; test: MIC, hospital MRSE strain; format: cell-based, Staphylococcus epidermidis; details: hospital MRSE S. epidermidis 436
Method: as §1, §2

[25] = system: S. epidermidis 433; test: MIC, hospital MRSE strain; format: cell-based, Staphylococcus epidermidis; details: hospital MRSE S. epidermidis 433
Method: as §1, §2

SMILES | MIC [1] [µg/mL] | MIC [2] [µg/mL] | inhibition zone diameter [3] [mm] | MIC [5] [µg/mL] | MIC [6] [µg/mL] | MIC [7] [µg/mL] | MIC [8] [µg/mL] | MIC [9] [µg/mL] | MIC [10] [µg/mL] | MIC [11] [µg/mL] | MIC [12] [µg/mL] | MIC [13] [µg/mL] | MIC [14] [µg/mL] | MIC [15] [µg/mL] | MIC [16] [µg/mL] | MIC [17] [µg/mL] | MIC [18] [µg/mL] | MIC [19] [µg/mL] | MIC [20] [µg/mL] | MIC [21] [µg/mL] | other results
O=[N+]([O-])c1cc([N+]2=C(Nc3ccc(Br)cc3)[S][Cu-2]23[S]C(Nc2ccc(Br)cc2)=[N+]3c2ccc(Cl)c([N+](=O)[O-])c2)ccc1Cl [Compound 3, Copper (II) complex with 1-(4-bromophenyl)-3-(4-chloro-3-nitrophenyl)thiourea] | >256 | 128 | 15 | 16 | 8 | 8 | 8 | 4 | 4 | 8 | 8 | 4 | 4 | 8 | 4 | 4 | 4 | 4 | 4 | 4 | MIC ([4]; most of hospital S. epidermidis species): 4 to 8 µg/mL; times more active than ciprofloxacin [9]: 64 times; MIC [22]: 8 µg/mL; MIC [23]: 4 µg/mL; MIC [24]: 4 µg/mL; MIC [25]: 4 µg/mL
O=[N+]([O-])c1cc([N+]2=C(Nc3ccccc3Br)[S][Cu-2]23[S]C(Nc2ccccc2Br)=[N+]3c2ccc(Cl)c([N+](=O)[O-])c2)ccc1Cl [Compound 1, Copper (II) complex with 1-(2-bromophenyl)-3-(4-chloro-3-nitrophenyl)thiourea] | 256 | 128 | 12 | 8 | 8 | 8 | 8 | 8 | 8 | 8 | 4 | 8 | 8 | 4 | 8 | 8 | 8 | 8 | 8 | 8 | times more effective than the reference chemotherapeutic (ciprofloxacin) [4]: 2–16 times; MIC [22]: 8 µg/mL; MIC [23]: 8 µg/mL; MIC [24]: 8 µg/mL; MIC [25]: 4 µg/mL
O=[N+]([O-])c1cc([N+]2=C(Nc3ccc(F)c(Cl)c3)[S][Cu-2]23[S]C(Nc2ccc(F)c(Cl)c2)=[N+]3c2ccc(Cl)c([N+](=O)[O-])c2)ccc1Cl [Compound 4, Copper (II) complex with 1-(3-chloro-4-fluorophenyl)-3-(4-chloro-3-nitrophenyl)thiourea] | 128 | 128 | 18 | 4 | 4 | 4 | 4 | 4 | 4 | 8 | 4 | 8 | 4 | 4 | 8 | 8 | 8 | 4 | 8 | 8 | times more effective than the reference chemotherapeutic (ciprofloxacin) [4]: 2–16 times; times more active than ciprofloxacin [9]: 64 times; MIC [22]: 8 µg/mL; MIC [23]: 8 µg/mL; MIC [24]: 8 µg/mL; MIC [25]: 4 µg/mL
O=[N+]([O-])c1cc([N+]2=C(Nc3ccc(I)cc3)[S][Cu-2]23[S]C(Nc2ccc(I)cc2)=[N+]3c2ccc(Cl)c([N+](=O)[O-])c2)ccc1Cl [Compound 8, Copper (II) complex with 1-(4-iodophenyl)-3-(4-chloro-3-nitrophenyl)thiourea] | 128 | 128 | 14 | 4 | 4 | 4 | 4 | 4 | 8 | 8 | 8 | 8 | 8 | 8 | 8 | 8 | 8 | 8 | 8 | 8 | times more effective than the reference chemotherapeutic (ciprofloxacin) [4]: 2–16 times; times more active than ciprofloxacin [9]: 64 times; MIC [22]: 8 µg/mL; MIC [23]: 8 µg/mL; MIC [24]: 8 µg/mL; MIC [25]: 4 µg/mL
